Reference: US20240115654A1, “INTRAVENOUS ADMINISTRATION OF ENGINEERED ANTIMICROBIAL AMPHIPHILIC PEPTIDES” (priority 2021, published 2024)
Read-outs that look alike come from different tables or passages of the source. Peptide text beside a SMILES is read from it.

Conditions: human, in vivo; for Vd: mean apparent volume of distribution (Vz)
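Further: phase 1 study in human subjects given one IV dose of the peptide, enrolled in sequential ascending-dose cohorts and randomized to peptide or placebo.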

What does the source list for `CC(C)[C@H](NC(=O)[C@H](Cc1c[nH]c2ccccc12)NC(=O)[C@H](CCCNC(=N)N)NC(=O)[C@H](CCCNC(=N)N)NC(=O)[C@@H](NC(=O)[C@@H](NC(=O)[C@H](CCCNC(=N)N)NC(=O)[C@@H](NC(=O)[C@@H](NC(=O)[C@H](CCCNC(=N)N)NC(=O)[C@H](CCCNC(=N)N)NC(=O)[C@H](Cc1c[nH]c2ccccc12)NC(=O)[C@@H](NC(=O)[C@H](CCCNC(=N)N)NC(=O)[C@H](CCCNC(=N)N)NC(=O)[C@@H](NC(=O)[C@H](CCCNC(=N)N)NC(=O)[C@H](CCCNC(=N)N)NC(=O)[C@@H](NC(=O)[C@H](Cc1c[nH]c2ccccc12)NC(=O)[C@H](CCCNC(=N)N)NC(=O)[C@@H](N)CCCNC(=N)N)C(C)C)C(C)C)C(C)C)C(C)C)C(C)C)C(C)C)C(C)C)C(=O)N[C@@H](CCCNC(=N)N)C(=O)N[C@@H](CCCNC(=N)N)C(N)=O` [SEQ ID NO: 1] (H-RRWVRRVRRVWRRVVRVVRRWVRR-NH2)?
Cmax (iv, Cohort 4, 0.5 mg/kg IV infusion 2 hours, Median): 1970 ng/mL; Cmax (iv, Cohort 4, 0.5 mg/kg IV, infusion 2 hours, cohort Geometric Mean): 1770 ng/mL; Cmax (iv, Cohort 4, 0.5 mg/kg IV, infusion 2 hours, cohort Mean): 1830 ng/mL; Cmax (iv, Cohort 4, 0.5 mg/kg IV, infusion 2 hours, cohort Median): 1970 ng/mL; Cmax (iv, Cohort 5, 1 mg/kg IV infusion 4 hours, Geometric Mean): 2580 ng/mL; Cmax (iv, Cohort 5, 1 mg/kg IV infusion 4 hours, Mean): 2650 ng/mL; Cmax (iv, Cohort 5, 1 mg/kg IV infusion 4 hours, Median): 2510 ng/mL; Cmax (iv, Cohort 5, 1 mg/kg IV infusion 4 hours, individual subject): 4000 ng/mL; Tmax (iv, Tmax, Cohort 1, 0.05 mg/kg IV infusion, Geometric Mean): 1 h; Tmax (iv, Tmax, Cohort 1, 0.05 mg/kg IV infusion, Mean): 1 h; Tmax (iv, Tmax, Cohort 1, 0.05 mg/kg IV infusion, Median): 1 h; Tmax (iv, Tmax, Cohort 1, 0.05 mg/kg IV infusion, cohort Geometric Mean): 1 h; Tmax (iv, Tmax, Cohort 1, 0.05 mg/kg IV infusion, cohort Mean): 1 h; Tmax (iv, Tmax, Cohort 1, 0.05 mg/kg IV infusion, cohort Median): 1 h; Tmax (iv, Tmax, Cohort 1, 0.05 mg/kg IV infusion, individual subject): 1 h; Tmax (iv, Tmax, Cohort 1, 0.05 mg/kg IV infusion, individual subjects): 1 h; Tmax (iv, Tmax, Cohort 2, […] IV infusion, Geometric Mean): 1 h; Tmax (iv, Tmax, Cohort 2, […] IV infusion, Mean): 1 h; Tmax (iv, Tmax, Cohort 2, […] IV infusion, Median): 1 h; Tmax (iv, Tmax, Cohort 2, […] IV infusion, cohort Geometric Mean): 1 h; Tmax (iv, Tmax, Cohort 2, […] IV infusion, cohort Mean): 1 h; Tmax (iv, Tmax, Cohort 2, […] IV infusion, cohort Median): 1 h; Tmax (iv, Tmax, Cohort 2, […] IV infusion, individual subject): 1 h; Tmax (iv, Tmax, Cohort 2, […] IV infusion, individual subjects): 1 h; Tmax (iv, Tmax, Cohort 3, […] IV infusion, Geometric Mean): 0.66 h; Tmax (iv, Tmax, Cohort 3, […] IV infusion, Mean): 0.71 h; Tmax (iv, Tmax, Cohort 3, […] IV infusion, Median): 0.5 h; Tmax (iv, Tmax, Cohort 3, […] IV infusion, cohort Geometric Mean): 0.66 h; Tmax (iv, Tmax, Cohort 3, […] IV infusion, cohort Mean): 0.71 h; Tmax (iv, Tmax, Cohort 3, […] IV infusion, cohort Median): 0.5 h; Tmax (iv, Tmax, Cohort 3, […] IV infusion, individual subject): 1 h; Tmax (iv, Tmax, Cohort 3, […] IV infusion, individual subjects): 1 h; Tmax (iv, Tmax, Cohort 3b, […] IV infusion 2 hours, Geometric Mean): 2 h; Tmax (iv, Tmax, Cohort 3b, […] IV infusion 2 hours, Mean): 2 h; Tmax (iv, Tmax, Cohort 3b, […] IV infusion 2 hours, Median): 2 h; Tmax (iv, Tmax, Cohort 3b, […] IV infusion 2 hours, individual subject): 2 h; Tmax (iv, Tmax, Cohort 3b, infusion 2 hours, cohort Geometric Mean): 2 h; Tmax (iv, Tmax, Cohort 3b, infusion 2 hours, cohort Mean): 2 h; Tmax (iv, Tmax, Cohort 3b, infusion 2 hours, cohort Median): 2 h; Tmax (iv, Tmax, Cohort 3b, infusion 2 hours, individual subjects): 2 h; Tmax (iv, Tmax, Cohort 4, 0.5 mg/kg IV infusion 2 hours, Geometric Mean): 2 h; Tmax (iv, Tmax, Cohort 4, 0.5 mg/kg IV infusion 2 hours, Mean): 2 h; Tmax (iv, Tmax, Cohort 4, 0.5 mg/kg IV infusion 2 hours, Median): 2 h; Tmax (iv, Tmax, Cohort 4, 0.5 mg/kg IV infusion 2 hours, individual subject): 2 h; Tmax (iv, Tmax, Cohort 4, 0.5 mg/kg IV, infusion 2 hours, cohort Geometric Mean): 2 h; Tmax (iv, Tmax, Cohort 4, 0.5 mg/kg IV, infusion 2 hours, cohort Mean): 2 h; Tmax (iv, Tmax, Cohort 4, 0.5 mg/kg IV, infusion 2 hours, cohort Median): 2 h; Tmax (iv, Tmax, Cohort 4, 0.5 mg/kg IV, infusion 2 hours, individual subjects): 2 h; Tmax (iv, Tmax, Cohort 5, 1 mg/kg IV infusion 4 hours, Geometric Mean): 4 h; Tmax (iv, Tmax, Cohort 5, 1 mg/kg IV infusion 4 hours, Mean): 4 h; Tmax (iv, Tmax, Cohort 5, 1 mg/kg IV infusion 4 hours, Median): 4 h; Tmax (iv, Tmax, Cohort 5, 1 mg/kg IV infusion 4 hours, individual subject): 4 h; half-life (iv, […], t1/2, […] IV 1-hr infusion): 10.5 h; half-life (iv, […], t1/2, […] IV 1-hr infusion (only 3 participants)): 19.9 h; half-life (iv, […], t1/2, […] IV 2-hr infusion): 13.2 h; Tmax (iv, median Tmax, 0.05 and […] doses, 1-hour IV infusion (Cohorts 1, 2)): 1.02 h; Tmax (iv, median Tmax, 0.25 and 0.5 mg/kg doses, 2-hour IV infusion (Cohorts 3b, 4)): 2.02 h; half-life (iv, t1/2, Cohort 1, 0.05 mg/kg IV infusion, Geometric Mean): 7.33 h; half-life (iv, t1/2, Cohort 1, 0.05 mg/kg IV infusion, Mean): 7.36 h; half-life (iv, t1/2, Cohort 1, 0.05 mg/kg IV infusion, Median): 7.29 h; half-life (iv, t1/2, Cohort 1, 0.05 mg/kg IV infusion, cohort Geometric Mean): 7.33 h; half-life (iv, t1/2, Cohort 1, 0.05 mg/kg IV infusion, cohort Mean): 7.36 h; half-life (iv, t1/2, Cohort 1, 0.05 mg/kg IV infusion, cohort Median): 7.29 h; half-life (iv, t1/2, Cohort 1, 0.05 mg/kg IV infusion, individual subject): 6.62 h; half-life (iv, t1/2, Cohort 1, 0.05 mg/kg IV infusion, individual subjects): 6.62 h; half-life (iv, t1/2, Cohort 2, […] IV infusion, Geometric Mean): 10.1 h; half-life (iv, t1/2, Cohort 2, […] IV infusion, Mean): 10.5 h; half-life (iv, t1/2, Cohort 2, […] IV infusion, Median): 9.2 h; half-life (iv, t1/2, Cohort 2, […] IV infusion, cohort Geometric Mean): 10.1 h; half-life (iv, t1/2, Cohort 2, […] IV infusion, cohort Mean): 10.5 h; half-life (iv, t1/2, Cohort 2, […] IV infusion, cohort Median): 9.2 h; half-life (iv, t1/2, Cohort 3, […] IV infusion, Geometric Mean): 13.6 h; half-life (iv, t1/2, Cohort 3, […] IV infusion, Mean): 15.2 h; half-life (iv, t1/2, Cohort 3, […] IV infusion, Median): 19 h; half-life (iv, t1/2, Cohort 3, […] IV infusion, cohort Geometric Mean): 13.6 h; half-life (iv, t1/2, Cohort 3, […] IV infusion, cohort Mean): 15.2 h; half-life (iv, t1/2, Cohort 3, […] IV infusion, cohort Median): 19 h; half-life (iv, t1/2, Cohort 3b, […] IV infusion 2 hours, Geometric Mean): 12.8 h; half-life (iv, t1/2, Cohort 3b, […] IV infusion 2 hours, Mean): 13.1 h; half-life (iv, t1/2, Cohort 3b, […] IV infusion 2 hours, Median): 13.1 h; half-life (iv, t1/2, Cohort 3b, […] IV infusion 2 hours, individual subject): 17.5 h; half-life (iv, t1/2, Cohort 3b, infusion 2 hours, cohort Geometric Mean): 12.8 h; half-life (iv, t1/2, Cohort 3b, infusion 2 hours, cohort Mean): 13.1 h; half-life (iv, t1/2, Cohort 3b, infusion 2 hours, cohort Median): 13.1 h; half-life (iv, t1/2, Cohort 3b, infusion 2 hours, individual subjects): 17.5 h; half-life (iv, t1/2, Cohort 4, 0.5 mg/kg IV infusion 2 hours, Geometric Mean): 15.7 h; half-life (iv, t1/2, Cohort 4, 0.5 mg/kg IV infusion 2 hours, Mean): 16.2 h; half-life (iv, t1/2, Cohort 4, 0.5 mg/kg IV infusion 2 hours, Median): 15.6 h; half-life (iv, t1/2, Cohort 4, 0.5 mg/kg IV infusion 2 hours, individual subject): 12.6 h; half-life (iv, t1/2, Cohort 4, 0.5 mg/kg IV, infusion 2 hours, cohort Geometric Mean): 15.7 h; half-life (iv, t1/2, Cohort 4, 0.5 mg/kg IV, infusion 2 hours, cohort Mean): 16.2 h; half-life (iv, t1/2, Cohort 4, 0.5 mg/kg IV, infusion 2 hours, cohort Median): 15.6 h; half-life (iv, t1/2, Cohort 4, 0.5 mg/kg IV, infusion 2 hours, individual subjects): 12.6 h; half-life (iv, t1/2, Cohort 5, 1 mg/kg IV infusion 4 hours, Geometric Mean): 18.6 h; half-life (iv, t1/2, Cohort 5, 1 mg/kg IV infusion 4 hours, Mean): 19.9 h; half-life (iv, t1/2, Cohort 5, 1 mg/kg IV infusion 4 hours, Median): 20.9 h; Tmax (mean Tmax, Cohort 1, from the start of infusion): 0.85 h; Tmax (mean Tmax, Cohort 5, from the start of infusion): 4.19 h; Vd (Cohort 1): 25.5 L; Vd (Cohort 5): 94.2 L; half-life (mean half-life, Cohorts 1 to 3 (0.05 to […], 1-hour infusion), increasing with dose): 7.22 to 15.2 h; half-life (mean half-life, Cohorts 3b and 4 (0.25 and 0.5 mg/kg, 2-hour infusion), increasing with dose): 13.1 to 16.2 h; half-life (mean terminal half-life, range over dose groups, dose range 0.05 to 0.5 mg/kg (Cohorts 1 to 4)): 7.4 to 19.9 h; half-life (t1/2, single 1-hour infusion 0.05 mg/kg, Geometric Mean): 7.33 h; half-life (t1/2, single 1-hour infusion 0.05 mg/kg, Mean): 7.36 h; half-life (t1/2, single 1-hour infusion 0.05 mg/kg, Median): 7.29 h; half-life (t1/2, single 1-hour infusion 0.05 mg/kg, individual subjects): 6.62 h
